Measurements: the NIST ThermoML archive (doi:10.1021/acs.jced.5b00658)

Legend:
[1] = Molar enthalpy of transition or fusion; conditions: Crystal; DSC
[2] = for viscosity / mass density: 101.33 kPa; for mass density: Vibrating tube method; for Normal melting temperature: Crystal, DTA; for Glass transition temperature: DSC

CC(C)[n+]1ccn(C)c1.O=S(=O)([N-]S(=O)(=O)C(F)(F)F)C(F)(F)F
Conditions | Glass transition temperature [°C] | Molar enthalpy of transition or fusion [kcal/mol] | Normal melting temperature [°C]
[1] | – | 5.71 | –
[2] | -83 | – | 9.0

[2], Liquid, Concentric cylinders viscometry
Conditions | viscosity [mPa·s]
278.15 K | 122
288.15 K | 75
293.15 K | 59
298.15 K | 48
303.15 K | 39
313.15 K | 28
323.15 K | 21
333.15 K | 16

[2], Liquid
Conditions | mass density [kg/m3]
283.15 K | 1492.2
288.15 K | 1487.2
293.15 K | 1482.5
298.15 K | 1477.6
303.15 K | 1472.8
308.15 K | 1467.8
313.15 K | 1462.6

CC(C)CCCn1cc[n+](C)c1.O=S(=O)([N-]S(=O)(=O)C(F)(F)F)C(F)(F)F
Conditions | Glass transition temperature [°C] | Molar enthalpy of transition or fusion [kcal/mol] | Normal melting temperature [°C]
[1] | – | 0.0239 | –
[2] | -81 | – | 3.2

[2], Liquid, Concentric cylinders viscometry
Conditions | viscosity [mPa·s]
278.15 K | 237
288.15 K | 137
293.15 K | 107
298.15 K | 85
303.15 K | 69
313.15 K | 45
323.15 K | 32
333.15 K | 23

[2], Liquid
Conditions | mass density [kg/m3]
283.15 K | 1385.9
288.15 K | 1381.3
293.15 K | 1377
298.15 K | 1372.4
303.15 K | 1367.9
308.15 K | 1363.3
313.15 K | 1358.5

CC(C)CCCCn1cc[n+](C)c1.O=S(=O)([N-]S(=O)(=O)C(F)(F)F)C(F)(F)F
Conditions | Glass transition temperature [°C] | Molar enthalpy of transition or fusion [kcal/mol] | Normal melting temperature [°C]
[1] | – | 0.12 | –
[2] | -81.3 | – | 11.2

viscosity [mPa·s], [2]
Conditions | 278.15 K | 288.15 K | 293.15 K | 298.15 K | 303.15 K | 313.15 K | 323.15 K | 333.15 K
Concentric cylinders viscometry, Liquid | – | 164 | 124 | 96 | 76 | 50 | 35 | 25
Metastable liquid, Concentric cylinders viscometry | 306 | – | – | – | – | – | – | –

[2], Liquid
Conditions | mass density [kg/m3]
283.15 K | 1357.5
288.15 K | 1353
293.15 K | 1348.7
298.15 K | 1344.2
303.15 K | 1339.8
308.15 K | 1335.2
313.15 K | 1330.6

CCCn1cc[n+](C)c1.O=S(=O)([N-]S(=O)(=O)C(F)(F)F)C(F)(F)F
[2], Liquid, Concentric cylinders viscometry
Conditions | viscosity [mPa·s]
278.2 K | 103
288.15 K | 64
298.15 K | 43
308.15 K | 30
318.15 K | 22
328.15 K | 17
338.15 K | 13

[2], Liquid
Conditions | mass density [kg/m3]
283.15 K | 1490.2
288.15 K | 1485.2
293.15 K | 1480.6
298.15 K | 1475.6
303.15 K | 1470.8
308.15 K | 1465.8
313.15 K | 1460.6

CC(C)Cn1cc[n+](C)c1.O=S(=O)([N-]S(=O)(=O)C(F)(F)F)C(F)(F)F
Conditions | Glass transition temperature [°C] | Molar enthalpy of transition or fusion [kcal/mol] | Normal melting temperature [°C]
[1] | – | 1.63 | –
[2] | -81.2 | – | -16.2

[2], Liquid
Conditions | mass density [kg/m3] | viscosity [mPa·s]
278.15 K | – | 244
283.15 K | 1450.3 | –
288.15 K | 1445.6 | 132
293.15 K | 1441.1 | 103
298.15 K | 1436.3 | 79
303.15 K | 1431.6 | 61
308.15 K | 1426.6 | –
313.15 K | 1421.9 | 40
323.15 K | – | 28
333.15 K | – | 20

CCCC[n+]1ccn(C)c1.O=S(=O)([N-]S(=O)(=O)C(F)(F)F)C(F)(F)F
Conditions | Glass transition temperature [°C] | Molar enthalpy of transition or fusion [kcal/mol] | Normal melting temperature [°C]
[1] | – | 5.76 | –
[2] | -88.9 | – | -4.6

[2], Liquid
Conditions | mass density [kg/m3]
283.15 K | 1451.2
288.15 K | 1446.5
293.15 K | 1441.9
298.15 K | 1436.9
303.15 K | 1432.1
308.15 K | 1427.1
313.15 K | 1422.6

CCCCCn1cc[n+](C)c1.O=S(=O)([N-]S(=O)(=O)C(F)(F)F)C(F)(F)F
[2], Liquid
Conditions | mass density [kg/m3]
283.15 K | 1417.5
288.15 K | 1412.9
293.15 K | 1408.4
298.15 K | 1403.6
303.15 K | 1399
308.15 K | 1393.9
313.15 K | 1389.3

CC(C)CCn1cc[n+](C)c1.O=S(=O)([N-]S(=O)(=O)C(F)(F)F)C(F)(F)F
Conditions | Glass transition temperature [°C] | Molar enthalpy of transition or fusion [kcal/mol] | Normal melting temperature [°C]
[1] | – | 0.0239 | –
[2] | -83.7 | – | -0.0

[2], Liquid, Concentric cylinders viscometry
Conditions | viscosity [mPa·s]
278.15 K | 195
288.15 K | 112
293.15 K | 86
298.15 K | 69
303.15 K | 56
313.15 K | 38
323.15 K | 27
333.15 K | 20

[2], Liquid
Conditions | mass density [kg/m3]
283.15 K | 1417.5
288.15 K | 1412.7
293.15 K | 1408.1
298.15 K | 1403.3
303.15 K | 1398.5
308.15 K | 1393.7
313.15 K | 1388.7

CCCCCCCn1cc[n+](C)c1.O=S(=O)([N-]S(=O)(=O)C(F)(F)F)C(F)(F)F
Conditions | Glass transition temperature [°C] | Molar enthalpy of transition or fusion [kcal/mol] | Normal melting temperature [°C]
[1] | – | 0.0956 | –
[2] | -85.4 | – | -0.9

[2], Liquid, Concentric cylinders viscometry
Conditions | viscosity [mPa·s]
278.2 K | 234
288.15 K | 132
298.15 K | 82
308.15 K | 54
318.15 K | 37
328.15 K | 27
338.15 K | 20

[2], Liquid
Conditions | mass density [kg/m3]
283.15 K | 1358.4
288.15 K | 1354.1
293.15 K | 1349.8
298.15 K | 1345.4
303.15 K | 1341
308.15 K | 1336.4
313.15 K | 1331.6

CCCCCC[n+]1ccn(C)c1.O=S(=O)([N-]S(=O)(=O)C(F)(F)F)C(F)(F)F
Conditions | Glass transition temperature [°C] | Molar enthalpy of transition or fusion [kcal/mol] | Normal melting temperature [°C]
[1] | – | 1.65 | –
[2] | -85.7 | – | -11.2

[2], Liquid
Conditions | mass density [kg/m3]
283.15 K | 1386.1
288.15 K | 1381.5
293.15 K | 1377.2
298.15 K | 1372.7
303.15 K | 1368.3
308.15 K | 1363.6
313.15 K | 1358.8
